Target: Transient receptor potential cation channel subfamily V member 1 (Homo sapiens, UniProt Q8NER1)
Test: Inhibition of calcium influx evoked by capsaicin in human TRPV1 expressing cells by fluorescence assay
Assay type: functional

Chain of Transient receptor potential cation channel subfamily V member 1 (Q8NER1 whole entry): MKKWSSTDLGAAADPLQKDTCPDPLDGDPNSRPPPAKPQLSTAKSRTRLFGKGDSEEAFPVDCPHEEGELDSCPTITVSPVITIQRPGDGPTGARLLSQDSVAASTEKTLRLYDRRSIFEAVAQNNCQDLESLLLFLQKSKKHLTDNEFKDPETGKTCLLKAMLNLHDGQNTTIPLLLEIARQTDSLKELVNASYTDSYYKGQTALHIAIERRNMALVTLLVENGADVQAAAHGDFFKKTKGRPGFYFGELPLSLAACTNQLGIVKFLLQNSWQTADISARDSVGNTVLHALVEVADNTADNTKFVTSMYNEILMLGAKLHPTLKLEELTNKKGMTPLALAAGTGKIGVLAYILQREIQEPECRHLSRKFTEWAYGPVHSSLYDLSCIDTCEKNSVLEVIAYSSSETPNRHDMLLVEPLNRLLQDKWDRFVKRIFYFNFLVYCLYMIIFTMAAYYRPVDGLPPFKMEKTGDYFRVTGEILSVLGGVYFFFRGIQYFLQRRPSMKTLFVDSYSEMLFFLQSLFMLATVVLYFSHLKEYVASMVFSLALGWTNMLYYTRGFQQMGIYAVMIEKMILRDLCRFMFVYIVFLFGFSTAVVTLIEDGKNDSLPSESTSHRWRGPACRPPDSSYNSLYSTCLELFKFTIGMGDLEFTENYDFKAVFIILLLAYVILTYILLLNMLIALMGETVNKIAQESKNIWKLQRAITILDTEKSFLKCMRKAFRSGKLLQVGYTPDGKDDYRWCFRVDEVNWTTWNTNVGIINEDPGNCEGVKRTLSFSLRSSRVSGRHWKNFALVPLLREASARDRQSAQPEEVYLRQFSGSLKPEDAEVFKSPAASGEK

IC50: 133 nM
SMILES: CC(C)c1cc2nc(N)[nH]c(=O)c2cc1-c1ccc(Cl)cc1

From ChEMBL document CHEMBL1147725, “Identification and biological characterization of 6-aryl-7-isopropylquinazolinones as novel TRPV1 antagonists that are effective in models of chronic pain” (J Med Chem, 2006)
